Blank lines part the entries; values can stand above or below the molecule they belong to.
Legend:
A-431 [1] = assay: Cytotoxicity against human A431 cells; format: functional
A2780 [2] = assay: Cytotoxicity against human A2780 cells; format: functional
[3] = Cytotoxicity against human BE2-C cells; format: functional; conditions: BE(2)-C
[4] = Cytotoxicity against human SJ-G2 cells; format: functional
HT-29 [5] = assay: Cytotoxicity against human HT29 cells; format: functional
[6] = Inhibition of Protein phosphatase 2A; parameters: species or system Homo sapiens
SW480 [7] = assay: Cytotoxicity against human SW480 cells; format: functional
NCI-H460 [8] = assay: Cytotoxicity against human H460 cells; format: functional
[9] = Inhibition of Protein phosphatase 1; parameters: species or system Homo sapiens
MCF7 [10] = assay: Cytotoxicity against human MCF7 cells; format: functional
DU-145 [11] = assay: Cytotoxicity against human DU145 cells; format: functional
A2780 [12] = assay: Cytotoxicity against human A2780 cells at 100 uM; format: functional
DU-145 [13] = assay: Cytotoxicity against human DU145 cells at 100 uM; format: functional
[14] = Cytotoxicity against human BE2-C cells at 100 uM; format: functional; conditions: BE(2)-C
SW480 [15] = assay: Cytotoxicity against human SW480 cells at 100 uM; format: functional
HT-29 [16] = assay: Cytotoxicity against human HT29 cells at 100 uM; format: functional
A-431 [17] = assay: Cytotoxicity against human A431 cells at 100 uM; format: functional
NCI-H460 [18] = assay: Cytotoxicity against human H460 cells at 100 uM; format: functional
[19] = Cytotoxicity against human SJ-G2 cells at 100 uM; format: functional
MCF7 [20] = assay: Cytotoxicity against human MCF7 cells at 100 uM; format: functional
Homo sapiens [21] = organism: Homo sapiens; assay: Inhibition of Protein phosphatase 2A at 100 uM
Homo sapiens [22] = organism: Homo sapiens; assay: Inhibition of Protein phosphatase 1 at 100 uM

SMILES: C[C@]1(C(=O)O)[C@@H]2CC[C@@H](O2)[C@@]1(C)C(=O)NC(=O)N1CCOCC1
GI50 (A-431 [1]): 2.9 µM
GI50 (A2780 [2]): 4.9 µM
GI50 [3]: 2.5 µM
GI50 [4]: 2.1 µM
GI50 (HT-29 [5]): 2.8 µM
IC50 [6]: 0.79 µM
GI50 (SW480 [7]): 3.9 µM
GI50 (NCI-H460 [8]): 3.3 µM
IC50 [9]: 5.9 µM
GI50 (MCF7 [10]): 5.8 µM
GI50 (DU-145 [11]): 1.7 µM

SMILES: C[C@@]12C(=O)OC(=O)[C@]1(C)[C@H]1CC[C@@H]2O1 [CANTHARIDIN]
GI50 (A-431 [1]): 3.4 µM
GI50 (A2780 [2]): 5.8 µM
GI50 [3]: 4.9 µM
GI50 [4]: 3 µM
GI50 (HT-29 [5]): 3.3 µM
IC50 [6]: 1.2 µM
GI50 (SW480 [7]): 4.6 µM
GI50 (NCI-H460 [8]): 4 µM
IC50 [9]: 11 µM
GI50 (MCF7 [10]): 7 µM
GI50 (DU-145 [11]): 2.4 µM

SMILES: O=C1OC(=O)[C@H]2[C@@H]1[C@@H]1CC[C@H]2O1
GI50 (A-431 [1]): 33 µM
GI50 (A2780 [2]): 59 µM
GI50 [3]: 56 µM
GI50 [4]: 35 µM
GI50 (HT-29 [5]): 48 µM
IC50 [6]: 3 µM
GI50 (SW480 [7]): 35 µM
GI50 (NCI-H460 [8]): 45 µM
IC50 [9]: 9 µM
GI50 (MCF7 [10]): 64 µM
GI50 (DU-145 [11]): 3 µM

SMILES: O=C(NCCN1CCOCC1)NC(=O)C1C(C(=O)O)[C@@H]2CC[C@H]1O2 (stereo partly specified)
inhibition at 100 µM (A2780 [12]): 14%
inhibition at 100 µM (DU-145 [13]): 17%
inhibition at 100 µM [14]: 26%
inhibition at 100 µM (SW480 [15]): 14%
IC50 [6]: 43 µM
inhibition at 100 µM (HT-29 [16]): 37%
inhibition at 100 µM (A-431 [17]): 23%
inhibition at 100 µM (NCI-H460 [18]): 10%
inhibition at 100 µM [19]: 19%
IC50 [9]: 31 µM
inhibition at 100 µM (MCF7 [20]): 7.5%

Further lines, with some results ahead:

IC50 [6]: 7.9 µM
IC50 [9]: 6.5 µM
SMILES: O=C(NC(=O)Nc1ccc(N2CCOCC2)cc1)NC(=O)C1C(C(=O)O)[C@@H]2CC[C@H]1O2 (stereo partly specified)
inhibition at 100 µM (A2780 [12]): 18%
inhibition at 100 µM (DU-145 [13]): 17%
inhibition at 100 µM [14]: 13%
inhibition at 100 µM (SW480 [15]): 29%
inhibition at 100 µM (HT-29 [16]): 23%
inhibition at 100 µM (A-431 [17]): 21%
inhibition at 100 µM (NCI-H460 [18]): 19%
inhibition at 100 µM [19]: 21%
inhibition at 100 µM (MCF7 [20]): 20%

inhibition (Homo sapiens [21]): 56%
inhibition (Homo sapiens [22]): 35%
SMILES: O=C(NCCc1cnc[nH]1)NC(=O)C1C(C(=O)O)[C@@H]2CC[C@H]1O2 (stereo partly specified)
inhibition at 100 µM (A2780 [12]): 20%
inhibition at 100 µM (DU-145 [13]): 14%
inhibition at 100 µM [14]: 23%
inhibition at 100 µM (SW480 [15]): 33%
inhibition at 100 µM (HT-29 [16]): 21%
inhibition at 100 µM (A-431 [17]): 32%
inhibition at 100 µM (NCI-H460 [18]): 25%
inhibition at 100 µM [19]: 27%
inhibition at 100 µM (MCF7 [20]): 17%
